In patent publication US20250059182A1, “SOS1 INHIBITORS” (Mirati Therapeutics, Inc., priority 2021, published 2025):
Counter-ions that a name gives are not always drawn. Like-named read-outs stand apart in the source and are kept apart here.

How the values were obtained:
pERK in MKN1 cells = experiment: pERK inhibition, In-Cell Western (LI-COR Odyssey), MKN1 cells; assay type: cell-based; settings: MKN1 or H358 cells (table does not say which), 0.5-1 hour incubation, read-out: IC50 (nM), pERK inhibition
Experimental: This Example illustrates that exemplary compounds of the present invention prevent KRas-mediated GTP nucleotide exchange mediated by SOS1 to inhibit KRas activity thereby inhibiting the generation of the downstream effector pERK.
MKN1 cells (15,000/w) or H358 (30,000/w) were seeded in a black clear flat bottom 96-well cell culture plate (Corning, #3904) and incubated at 37° C. overnight. Assay day 1, cells were dosed with compounds of Formula (I) with a 10 μm starting concentration and serially diluted 3× for a total of 9 concentrations. The cells were incubated for approximately 0.5-1 hour with the compounds solubilized in DMSO at 37° C. Cells were immediately fixed by adding 50 μL of 4% formaldehyde to all wells in a fume hood and the plates were incubated for 20 minutes at room temperature. The formaldehyde was discarded from the plates and 150 μL of ice-cold methanol was added to permeabilize the cells for 10 minutes at −20° C. The methanol was discarded from each of the plates and any liquid remaining in the plate by tapping the plate against paper towels. Cells were then blocked with 150 μL of Odyssey blocking buffer (LI-COR Biosciences #927-50010) using 0.05% Tween for 1 hour at room temperature on a shaker. The blocking buffer was discarded and 50 μL of primary antibodies pERK (cell signaling Technology #9101L; Rabbit, 1:500) and GapDH (Millipore #MAB34; Mouse, 1:5000) diluted in Odyssey blocking buffer was added. The plates were incubated overnight at 4° C. on a shaker.
On Assay day 2, the primary antibody solution was removed. Each plate was washed 3× times with 150 μL of 1×PBST (PBS+0.1% Tween 20) and incubated with 50 μL of secondary antibodies: Anti-Rabbit (LI-COR Biosciences #926-32211) and Anti-Mouse (LI-COR Biosciences #68070) at 1:800 dilution in Odyssey blocking buffer with Tween at room temperature on a shaker for 2 hours (protected from light). The secondary antibody solution as removed and each plate was washed with PBST 3× times. Any liquid remaining was discarded and the plate was imaged using the Licor Odyssey machine according to the manufacturer's instruction, using a set focus length at 3 mm and both 800 nm and 700 nm filters. The GAPDH normalized scan values for each well were divided by the average of vehicle wells to get the % of pERK inhibition. The IC50 values were then calculated with the Graph pad Prism software.

[1] = biological target: T1, recombinant human SOS1 polypeptide (amino acids 560-1049) (Homo sapiens, UniProt Q07889); experiment: HTRF displacement assay: inhibition of labeled tracer binding to SOS1
T1 construct: corresponding to amino acids 560-1049, expressed in E. Coli; made in house; host or cells: E. coli
T1 sequence (Q07889 560-1049): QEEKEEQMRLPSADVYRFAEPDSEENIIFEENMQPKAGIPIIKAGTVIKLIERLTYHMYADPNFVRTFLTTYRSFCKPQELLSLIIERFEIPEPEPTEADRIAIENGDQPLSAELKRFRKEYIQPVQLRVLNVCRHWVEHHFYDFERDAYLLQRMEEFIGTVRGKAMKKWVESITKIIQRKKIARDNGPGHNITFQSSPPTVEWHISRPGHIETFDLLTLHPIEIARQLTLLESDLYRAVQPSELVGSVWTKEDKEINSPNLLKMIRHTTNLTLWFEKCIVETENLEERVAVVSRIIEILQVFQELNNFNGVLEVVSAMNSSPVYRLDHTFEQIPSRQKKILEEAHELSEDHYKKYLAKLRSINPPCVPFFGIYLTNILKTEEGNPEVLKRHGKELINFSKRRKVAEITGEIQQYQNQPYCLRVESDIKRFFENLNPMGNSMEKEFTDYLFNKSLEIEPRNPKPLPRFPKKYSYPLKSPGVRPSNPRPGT

[2] = Table A, Morrison equation for competitive binding
[3] = Table A1, Morrison equation for competitive binding

SMILES	IC50 (pERK in MKN1 cells; Homo sapiens, MKN-1, Table B) [nM]	Ki [1, 2] [nM]	IC50 (pERK in MKN1 cells; Table B) [nM]	Ki [1, 3] [nM]
Cc1c(C#N)cccc1[C@@H](C)Nc1nnc(C)c2cnc(N3C[C@H]4CCCN[C@H]4C3)cc12 (single isomer, unassigned) [Example 6-3]	73	0.992	–	–
Cc1c(C#N)cccc1[C@@H](C)Nc1nnc(C)c2cnc(N3C[C@@H]4CCCN[C@@H]4C3)cc12 (single isomer, unassigned) [Example 6-4]	194	2.74	–	–
Cc1c(C#N)cccc1[C@@H](C)Nc1nnc(C)c2cnc(N3C[C@H]4CCCN(C)[C@H]4C3)cc12 (single isomer, unassigned) [Example 6-5]	85.2	1.12	–	–
Cc1c(C#N)cccc1[C@@H](C)Nc1nnc(C)c2cnc(N3C[C@@H]4CCCN(C)[C@@H]4C3)cc12 (single isomer, unassigned) [Example 6-6]	80.6	1.36	–	–
Cc1c(C#N)cccc1[C@@H](C)Nc1nnc(C)c2cnc(N3C[C@@H]4[C@H]3CCN4C)cc12 (single isomer, unassigned) [Example 6-8]	–	0.808	33.8	–
Cc1c(C#N)cccc1[C@@H](C)Nc1nnc(C)c2cnc(N3C[C@H]4[C@@H]3CCN4C)cc12 (single isomer, unassigned) [Example 6-9]	–	2.12	69.4	–
Cc1c(C#N)cccc1[C@@H](C)Nc1nnc(C)c2cnc(N3CC[C@@H]4[C@H]3CN4C)cc12 (single isomer, unassigned) [Example 6-10]	44.4	0.872	–	–
Cc1c(C#N)cccc1[C@@H](C)Nc1nnc(C)c2cnc(N3CC[C@H]4[C@@H]3CN4C)cc12 (single isomer, unassigned) [Example 6-11]	199	2.78	–	–
Cc1c(C#N)cccc1[C@@H](C)Nc1nnc(C)c2cnc(N3C[C@H]4[C@@H]3CCN4C)cc12 (single isomer, unassigned) [Example 6-12]	–	0.24	13.7	–
Cc1c(C#N)cccc1[C@@H](C)Nc1nnc(C)c2cnc(N3C[C@@H]4[C@H]3CCN4C)cc12 (single isomer, unassigned) [Example 6-13]	–	0.615	16.3	–
Cc1c(C#N)cccc1[C@@H](C)Nc1nnc(C)c2cc(F)c(N3C[C@H]4[C@@H]3CCN4C)cc12 (single isomer, unassigned) [Example 9-1]	15.5	1	–	–
Cc1c(C#N)cccc1[C@@H](C)Nc1nnc(C)c2cc(F)c(N3C[C@@H]4[C@H]3CCN4C)cc12 (single isomer, unassigned) [Example 9-2]	30	2	–	–
CCN(c1cc2c(N[C@H](C)c3cccc(C#N)c3C)nnc(C)c2cn1)C1CCN(C)C1 (stereo in doubt) [Example 1-104, 3-((R)-1-((7-(ethyl((S)-1-methylpyrrolidin-3-yl)amino)-4-methylpyrido[3,4-d]pyridazin-1-yl)amino)ethyl)-2-methylbenzonitrile]	–	0.901	75.5	–
Cc1c(C#N)cccc1[C@@H](C)Nc1nnc(C)c2cnc(N3CC(C)(N4CCC4)C3)cc12 [Example 1-1, (R)-2-methyl-3-(1-((4-methyl-7-(3′-methyl-[1,3′-biazetidin]-1′-yl)pyrido[3,4-d]pyridazin-1-yl)amino)ethyl)benzonitrile]	104	1.59	–	–
CCN(CC)C1(C)CN(c2cc3c(N[C@H](C)c4cccc(C#N)c4C)nnc(C)c3cn2)C1 [Example 1-2, (R)-3-(1-((7-(3-(diethylamino)-3-methylazetidin-1-yl)-4-methylpyrido[3,4-d]pyridazin-1-yl)amino)ethyl)-2-methylbenzonitrile]	126	2.22	–	–
CN[C@H]1CCN(c2cc3c(N[C@H](C)c4cccc(C#N)c4C)nnc(C)c3cn2)C1 [Example 1-3, 2-methyl-3-((R)-1-((4-methyl-7-((S)-3-(methylamino)pyrrolidin-1-yl)pyrido[3,4-d]pyridazin-1-yl)amino)ethyl)benzonitrile]	95.1	1.42	–	–
Cc1c(C#N)cccc1[C@@H](C)Nc1nnc(C)c2cnc(N3CC(C)(N4CCCC4)C3)cc12 [Example 1-4, (R)-2-methyl-3-(1-((4-methyl-7-(3-methyl-3-(pyrrolidin-1-yl)azetidin-1-yl)pyrido[3,4-d]pyridazin-1-yl)amino)ethyl)benzonitrile]	62.6	1.22	–	–
Cc1nnc(N[C@H](C)c2cccc(C(F)F)c2F)c2cc(N3CCN(C)CC3)c(C#N)cc12 [Example 6-22, (R)-1-((1-(3-(difluoromethyl)-2-fluorophenyl)ethyl)amino)-4-methyl-7-(4-methylpiperazin-1-yl)phthalazine-6-carbonitrile]	–	1.49	–	–
Cc1c(C#N)cccc1[C@@H](C)Nc1nnc(C)c2cc(Br)c(N3CCN(C)CC3)cc12 [Example 8-1, (R)-3-(1-((6-bromo-4-methyl-7-(4-methylpiperazin-1-yl)phthalazin-1-yl)amino)ethyl)-2-methylbenzonitrile]	–	2.4	–	–
Cc1c(C#N)cccc1[C@@H](C)Nc1nnc(CO)c2cnc(N3CCOCC3)cc12 [Example P-201, (R)-3-(1-((4-(hydroxymethyl)-7-morpholinopyrido[3,4-d]pyridazin-1-yl)amino)ethyl)-2-methylbenzonitrile formic acid salt]	–	–	–	6.36
Cc1c(C#N)cccc1[C@@H](C)Nc1nnc(C=O)c2cnc(N3CCOCC3)cc12 [Example P-202, (R)-3-(1-((4-formyl-7-morpholinopyrido[3,4-d]pyridazin-1-yl)amino)ethyl)-2-methylbenzonitrile]	–	–	–	49.7
Cc1c(C#N)cccc1[C@@H](C)Nc1nnc(C)c2cnc(N3CCOC(=O)C3)cc12 [Example P-203, (R)-2-methyl-3-(1-((4-methyl-7-(2-oxomorpholino)pyrido[3,4-d]pyridazin-1-yl)amino)ethyl)benzonitrile]	–	–	–	26.1
Cc1c(C#N)cccc1[C@@H](C)Nc1nnc(C)c2cnc(N3CCOCC3=O)cc12 [Example P-204, (R)-2-methyl-3-(1-((4-methyl-7-(3-oxomorpholino)pyrido[3,4-d]pyridazin-1-yl)amino)ethyl)benzonitrile]	–	–	–	139
Cc1c(C#N)cccc1[C@@H](C)Nc1nnc(C)c2cnc(OCCOCCN3C(=O)CCC(N4C(=O)c5cccc(O)c5C4=O)C3=O)cc12 (stereo partly drawn) [Example P-207, 3-((1R)-1-((7-(2-(2-(3-(4-hydroxy-1,3-dioxoisoindolin-2-yl)-2,6-dioxopiperidin-1-yl)ethoxy)ethoxy)-4-methylpyrido[3,4-d]pyridazin-1-yl)amino)ethyl)-2-methylbenzonitrile]	–	–	–	865
Cc1c(C#N)cccc1[C@@H](C)Nc1nnc(C)c2cnc(OCCOCCOc3cccc4c3C(=O)N(C3CCC(=O)NC3=O)C4=O)cc12 (stereo partly drawn) [Example P-208, 3-((1R)-1-((7-(2-(2-((2-(2,6-dioxopiperidin-3-yl)-1,3-dioxoisoindolin-4-yl)oxy)ethoxy)ethoxy)-4-methylpyrido[3,4-d]pyridazin-1-yl)amino)ethyl)-2-methylbenzonitrile]	–	–	–	427
Cc1c(C#N)cccc1[C@@H](C)Nc1nnc(C)c2cnc(OCCNC(=O)CCOC34CC5CC(CC(C5)C3)C4)cc12 [Example P-209, 3-(((3s,5s, 7s)-adamantan-1-yl)oxy)-N-(2-((1-(((R)-1-(3-cyano-2-methylphenyl)ethyl)amino)-4-methylpyrido[3,4-d]pyridazin-7-yl)oxy)ethyl)propanamide]	–	–	–	542
